The values below come from US20250295627A1 (Leibniz-Institut Fuer Neurobiologie, priority 2022, published 2025).

One series has as its system GluR1. It is filed as cell-based, rat.
The subject of another series is HEK293T cells. Kind of series: Heterologous co-immunoprecipitation from HEK293T cells. It is filed as cell-based. The following applies: 20 nM staurosporine, 3 h.
A further series can be described thus: Solubility in water. It counts as physicochemical.
A further series has as its system pCREB. Kind of series: Jacob-induced CREB shutoff in hippocampal primary neurons expressing phosphodeficient Jacob. It is filed as cell-based, rat. The conditions noted are these: 2 μM OA, 20 min, neurons expressing phosphodeficient Jacob in the nucleus. The protocol:
Hippocampal neuronal cultures were transfected with plasmid DNA using Lipofectamine2000 (Thermo Fisher Scientific) following the manufacturer's instructions. For LMO4 knockdown cells were expressing shRNA for 5 days; for Jacob knockdown 4 days. […]. The target sequences for LMO4 and NLS-Jacob knockdown (Spilker et al., 2016) as well as scrambled controls are indicated in key resources table. For Aβ-induced CREB shutoff experiments Aβ oligomers (Anaspec) were prepared as described previously (see previous section, (Grochowska et al., 2017)). Transfected neurons were treated with 500 nM Aβ1-42 or Aβ3 (pE)-42. Nitarsone was diluted in distilled water.

The target of the next series is T1, GST-LMO4 (Homo sapiens, UniProt P61968).
T1 construct: made in house; host or cells: E. coli BL21 (DE3)
T1 sequence (P61968 1-165): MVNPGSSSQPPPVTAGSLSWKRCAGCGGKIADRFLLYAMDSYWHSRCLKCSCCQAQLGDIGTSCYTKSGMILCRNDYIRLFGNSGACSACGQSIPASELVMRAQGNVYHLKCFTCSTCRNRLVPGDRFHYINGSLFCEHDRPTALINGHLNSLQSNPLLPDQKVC
Briefly: Isothermal titration calorimetry (ITC). The following applies: binding to LMO4, 25 mM Tris buffer pH 7.4, 50 mM NaCl. Background: In ITC the heat of successive injections is recorded.

As usually defined, the Kd is the constant that tells how readily two partners part at equilibrium.

As for `NC1=N[C@H](O)[C@H]2[C@H]3O[C@]4(O)O[C@@H]([C@@H](O)[C@@]2(N1)[C@@H]4O)[C@]3(O)CO` [TTX, tetrodotoxin], the GluR1 surface expression entry in the series on GluR1 was “induced upregulation of GluR1 surface expression”. In the case of `CN[C@@H]1C[C@H]2O[C@@](C)([C@@H]1OC)n1c3ccccc3c3c4c(c5c6ccccc6n2c5c31)C(=O)NC4` [staurosporine], in the series on HEK293T cells, the “Jacob phosphorylation level (S180)” value is reported as “decreases Jacob phosphorylation level (S180)”, the “association of Jacob with CREB” value was “decreases the association of Jacob with CREB” and the “association of Jacob with LMO4-tagRFP” value is reported as “increases its association with LMO4-tagRFP”.

`CC(NCCO)c1ccc([N+](=O)[O-])cc1` (stereo not shown) [NPEAE, 2-{[1-(4-nitrophenyl)ethyl]amino}ethan-1-ol]: in “Solubility in water”, the solubility in water entry is “soluble in water”.

Consider `C=C1[C@@H](O)[C@@H]2O[C@]3(CC[C@H](/C=C/[C@@H](C)[C@@H]4CC(C)=C[C@@]5(O[C@H](C[C@@](C)(O)C(=O)O)CC[C@H]5O)O4)O3)CC[C@H]2O[C@@H]1[C@@H](O)C[C@H](C)[C@H]1O[C@@]2(CCCCO2)CC[C@H]1C` [OA, okadaic acid], for which the “Jacob-induced CREB shutoff” value with pCREB was “prevented Jacob-induced CREB shutoff”.

B1: Jacob: synapto-nuclear protein messenger; recombinant protein titrated against LMO4 in ITC (protein, listed as Homo sapiens)
chain: MGAAASRRRALRSEAMSSVAAKVRAARAFGEYLSQSHPENRNGADHLLADAYSGHDGSPEMQPAPQNKRRLSLVSNGCYEGSLSEEPSIRKPAGEGPQPRVYTISGEPALLPSPEAEAIELAVVKGRRQRHPHHHSQPLRASPGGSREDVSRPCQSWAGSRQGSKECPGCAQLAPGPTPRAFGLDQPPLPETSGRRKKLERMYSVDRVSDDIPIRTWFPKENLFSFQTATTTMQAISVFRGYAERKRRKRENDSASVIQRNFRKHLRMVGSRRVKAQTFAERRERSFSRSWSDPTPMKADTSHDSRDSSDLQSSHCTLDEAFEDLDWDTEKGLEAVACDTEGFVPPKVMLISSKVPKAEYIPTIIRRDDPSIIPILYDHEHATFEDILEEIERKLNVYHKGAKIWKMLIFCQGGPGHLYLLKNKVATFAKVEKEEDMIHFWKRLSRLMSKVNPEPNVIHIMGCYILGNPNGEKLFQNLRTLMTPYRVTFESPLELSAQGKQMIETYFDFRLYRLWKSRQHSKLLDFDDVL
In the series with GST-LMO4, B1 showed a Kd of 370 nM.
